In patent US10869844B2, “Methods for the treatment of depression” (Janssen Pharmaceutica NV, priority 2014, dated 2020):
Read-outs that look alike come from different tables or passages of the source.

What was measured:
[1] = tested on: adult subjects with TRD; format: in vivo, human; settings: for Non-responders % / Non-responders N / Responders % (MADRS total score reduction >50% TRD2001, ≥50% TRD2002) / Responders N (MADRS total score reduction >50% TRD2001, ≥50% TRD2002): after first infusion (Day 2 TRD2001, Day 3 or 4 TRD2002)
Protocol: (§1) Association between changes in MADRS total score from baseline and the SNP rs6265 after a single dose was evaluated in placebo subjects and active subjects using an ANCOVA model under a dominant model with baseline MADRS total score, and grouped genotype (Val/Val or Met carrier). A statistically significant result was found in active subjects (p=0.02).
as §1, with “the % responders” for “changes in MADRS total score from baseline”, “a logistic regression” for “an ANCOVA”, “score” for “score,”, “(p=0.03).” for “(p=0.02).”
Association between the % remitters and the SNP rs6265 after a single dose was evaluated in placebo subjects and as well as in active subjects using a logistic regression model under a dominant model with baseline MADRS total score and grouped genotype (Val/Val or Met carrier).

[2] = tested on: NMDA receptor; settings: S-enantiomer compared with ketamine; cited from earlier work
[3] = tested on: adult subjects with TRD; settings: for Day 17 responders who maintained response status up to Day 35, % / Day 17 responders who maintained response status up to Day 35, number: esketamine subjects per Day 1 randomization
[4] = Met carriers, DAY 02, randomized to esketamine Day 1
[5] = Met carriers, DAY 07, randomized to esketamine Day 1
[6] = Met carriers, DAY 07, randomized to placebo Day 1, esketamine from day 4 onward
[7] = Met carriers, DAY 17, randomized to esketamine Day 1
[8] = Met carriers, DAY 17, randomized to placebo Day 1, esketamine from day 4 onward
[9] = Met carriers, DAY 35, randomized to esketamine Day 1
[10] = Met carriers, DAY 35, randomized to placebo Day 1, esketamine from day 4 onward
[11] = Met carriers, Day 0 after Day 17, all responders (Day 17)
[12] = Met carriers, Day 0 after Day 17, esketamine responders (Day 17) per Day 1 randomization
[13] = Met carriers, Day 4 after Day 17, all responders (Day 17)
[14] = Met carriers, Day 4 after Day 17, esketamine responders (Day 17) per Day 1 randomization
[15] = Met carriers, Day 18 after Day 17, all responders (Day 17)
[16] = Met carriers, Day 18 after Day 17, esketamine responders (Day 17) per Day 1 randomization
[17] = Val/Val (of 7), 18 days after last dose
[18] = Val/Val, DAY 02, randomized to esketamine Day 1
[19] = Val/Val, DAY 07, randomized to esketamine Day 1
[20] = Val/Val, DAY 07, randomized to placebo Day 1, esketamine from day 4 onward
[21] = Val/Val, DAY 17, randomized to esketamine Day 1
[22] = Val/Val, DAY 17, randomized to placebo Day 1, esketamine from day 4 onward
[23] = Val/Val, DAY 35, randomized to esketamine Day 1
[24] = Val/Val, DAY 35, randomized to placebo Day 1, esketamine from day 4 onward
[25] = Val/Val, Day 0 after Day 17, all responders (Day 17)
[26] = Val/Val, Day 0 after Day 17, esketamine responders (Day 17) per Day 1 randomization
[27] = Val/Val, Day 11 after Day 17, all responders (Day 17)
[28] = esketamine subjects, Days 2, 7, 17 and 35

## CN[C@]1(c2ccccc2Cl)CCCCC1=O.Cl [Esketamine, (S)-2-(2-chlorophenyl)-2-(methylamino)cyclohexanone hydrochloride]
[1]; Met carriers
  Non-responders %: 88.9%
  Non-responders N: 8
  Responders % (MADRS total score reduction >50% TRD2001, ≥50% TRD2002): 11.1%
  Responders N (MADRS total score reduction >50% TRD2001, ≥50% TRD2002): 1
[1]; Val/Val
  Non-responders %: 25.0%
  Non-responders N: 2
  Responders % (MADRS total score reduction >50% TRD2001, ≥50% TRD2002): 75.0%
  Responders N (MADRS total score reduction >50% TRD2001, ≥50% TRD2002): 6
[1]; acute, single dose administration
  Clinical response associated with Met allele of Val66Met rs6265: smaller clinical response
[2]
  Potency or affinity for the NMDA receptor: higher potency or affinity
[3]; Day 35
  Maintenance of remission, Val/Val vs Met carriers: Remission was maintained longer in Val/Val than in Met carriers
[3]; Met carrier group, at Day 21, from 6
  Subjects who remained well, number: 3
[3]; Met carriers (of 6)
  Day 17 responders who maintained response status up to Day 35, %: 33.3%
  Day 17 responders who maintained response status up to Day 35, number: 2
[3]; [4]
  Non-remitters %: 88.9%
  Non-remitters No.: 8
  Non-responders %: 88.9%
  Non-responders No.: 8
  Remitters % (MADRS total score 10): 11.1%
  Remitters No. (MADRS total score 10): 1
  Responders % (MADRS total score reduction >50%): 11.1%
  Responders No. (MADRS total score reduction >50%): 1
[3]; [5]
  Non-remitters %: 77.8%
  Non-remitters No.: 7
  Non-responders %: 66.7%
  Non-responders No.: 6
  Remitters % (MADRS total score 10): 22.2%
  Remitters No. (MADRS total score 10): 2
  Responders % (MADRS total score reduction >50%): 33.3%
  Responders No. (MADRS total score reduction >50%): 3
[3]; [6]
  Non-remitters %: 100.0%
  Non-remitters No.: 1
  Non-responders No.: 0
  Remitters No. (MADRS total score 10): 0
  Responders % (MADRS total score reduction >50%): 100.0%
  Responders No. (MADRS total score reduction >50%): 1
[3]; [7]
  Non-remitters %: 77.8%
  Non-remitters No.: 7
  Non-responders %: 33.3%
  Non-responders No.: 3
  Remitters % (MADRS total score 10): 22.2%
  Remitters No. (MADRS total score 10): 2
  Responders % (MADRS total score reduction >50%): 66.7%
  Responders No. (MADRS total score reduction >50%): 6
[3]; [8]
  Non-remitters No.: 0
  Non-responders No.: 0
  Remitters % (MADRS total score 10): 100.0%
  Remitters No. (MADRS total score 10): 1
  Responders % (MADRS total score reduction >50%): 100.0%
  Responders No. (MADRS total score reduction >50%): 1
[3]; [9]
  Non-remitters %: 77.8%
  Non-remitters No.: 7
  Non-responders %: 55.6%
  Non-responders No.: 5
  Remitters % (MADRS total score 10): 22.2%
  Remitters No. (MADRS total score 10): 2
  Responders % (MADRS total score reduction >50%): 44.4%
  Responders No. (MADRS total score reduction >50%): 4
[3]; [10]
  Non-remitters No.: 0
  Non-responders No.: 0
  Remitters % (MADRS total score 10): 100.0%
  Remitters No. (MADRS total score 10): 1
  Responders % (MADRS total score reduction >50%): 100.0%
  Responders No. (MADRS total score reduction >50%): 1
[3]; [11]
  Duration of response, survival function estimate: Failure: 0
  Duration of response, survival function estimate: Survival: 1.0000
[3]; [12]
  Duration of response, survival function estimate: Failure: 0
  Duration of response, survival function estimate: Survival: 1.0000
[3]; [13]
  Duration of response, survival function estimate: Failure: 0.4286
  Duration of response, survival function estimate: Survival: 0.5714
[3]; [14]
  Duration of response, survival function estimate: Failure: 0.5000
  Duration of response, survival function estimate: Survival: 0.5000
[3]; [15]
  Duration of response, survival function estimate: Failure: 0.5714
  Duration of response, survival function estimate: Survival: 0.4286
[3]; [16]
  Duration of response, survival function estimate: Failure: 0.6667
  Duration of response, survival function estimate: Survival: 0.3333
[3]; [17]
  Day 17 responders who maintained response status up to Day 35, %: 100%
  Day 17 responders who maintained response status up to Day 35, number: 7
[3]; [18]
  Non-remitters %: 37.5%
  Non-remitters No.: 3
  Non-responders %: 25.0%
  Non-responders No.: 2
  Remitters % (MADRS total score 10): 62.5%
  Remitters No. (MADRS total score 10): 5
  Responders % (MADRS total score reduction >50%): 75.0%
  Responders No. (MADRS total score reduction >50%): 6
[3]; [19]
  Non-remitters %: 25.0%
  Non-remitters No.: 2
  Non-responders %: 25.0%
  Non-responders No.: 2
  Remitters % (MADRS total score 10): 75.0%
  Remitters No. (MADRS total score 10): 6
  Responders % (MADRS total score reduction >50%): 75.0%
  Responders No. (MADRS total score reduction >50%): 6
[3]; [20]
  Non-remitters %: 42.9%
  Non-remitters No.: 3
  Non-responders %: 28.6%
  Non-responders No.: 2
  Remitters % (MADRS total score 10): 57.1%
  Remitters No. (MADRS total score 10): 4
  Responders % (MADRS total score reduction >50%): 71.4%
  Responders No. (MADRS total score reduction >50%): 5
[3]; [21]
  Non-remitters %: 12.5%
  Non-remitters No.: 1
  Non-responders %: 12.5%
  Non-responders No.: 1
  Remitters % (MADRS total score 10): 87.5%
  Remitters No. (MADRS total score 10): 7
  Responders % (MADRS total score reduction >50%): 87.5%
  Responders No. (MADRS total score reduction >50%): 7
[3]; [22]
  Non-remitters %: 57.1%
  Non-remitters No.: 4
  Non-responders %: 28.6%
  Non-responders No.: 2
  Remitters % (MADRS total score 10): 42.9%
  Remitters No. (MADRS total score 10): 3
  Responders % (MADRS total score reduction >50%): 71.4%
  Responders No. (MADRS total score reduction >50%): 5
[3]; [23]
  Non-remitters %: 12.5%
  Non-remitters No.: 1
  Non-responders %: 12.5%
  Non-responders No.: 1
  Remitters % (MADRS total score 10): 87.5%
  Remitters No. (MADRS total score 10): 7
  Responders % (MADRS total score reduction >50%): 87.5%
  Responders No. (MADRS total score reduction >50%): 7
[3]; [24]
  Non-remitters %: 42.9%
  Non-remitters No.: 3
  Non-responders %: 42.9%
  Non-responders No.: 3
  Remitters % (MADRS total score 10): 57.1%
  Remitters No. (MADRS total score 10): 4
  Responders % (MADRS total score reduction >50%): 57.1%
  Responders No. (MADRS total score reduction >50%): 4
[3]; [25]
  Duration of response, survival function estimate: Failure: 0
  Duration of response, survival function estimate: Survival: 1.0000
[3]; [26]
  Duration of response, survival function estimate: Failure: 0
  Duration of response, survival function estimate: Survival: 1.0000
[3]; [27]
  Duration of response, survival function estimate: Failure: 0.0833
  Duration of response, survival function estimate: Survival: 0.9167
[3]; Val/Val, by Day 35, of 7
  Subjects who remain well, number: 7
[3]; all esketamine subjects per Day 1 randomization (Val/Val and Met carriers)
  Responders on Day 17, number: 13
[3]; [28]
  Remit rates, Val/Val vs Met carriers: remit rates were higher in Val/Val subjects than in Met carriers at all timepoints
  Response rates, Val/Val vs Met carriers: response rates were higher in Val/Val subjects than in Met carriers
